Reference: US20120295845A1, “IMIDAZO-PYRAZOLES AS GPR119 INHIBITORS” (Pfizer Inc, priority 2009, published 2012)
“And” between values parts separate entries of the source, which are not always exact repeats. Identical values can stand only once.

biological target: T1, human GPR119 (Homo sapiens, UniProt Q8TDV5); test: GPR119 radioligand binding assay ([3H]-Compound A or [3H]-Compound B, membranes of HEK 293FT cells expressing hGPR119); conditions: Ki calculated from IC50 by the Cheng-Prusoff equation; one value per run
T1 construct: host or cells: HEK293-CRE beta-lactamase cells
T1 sequence (Q8TDV5 1-335): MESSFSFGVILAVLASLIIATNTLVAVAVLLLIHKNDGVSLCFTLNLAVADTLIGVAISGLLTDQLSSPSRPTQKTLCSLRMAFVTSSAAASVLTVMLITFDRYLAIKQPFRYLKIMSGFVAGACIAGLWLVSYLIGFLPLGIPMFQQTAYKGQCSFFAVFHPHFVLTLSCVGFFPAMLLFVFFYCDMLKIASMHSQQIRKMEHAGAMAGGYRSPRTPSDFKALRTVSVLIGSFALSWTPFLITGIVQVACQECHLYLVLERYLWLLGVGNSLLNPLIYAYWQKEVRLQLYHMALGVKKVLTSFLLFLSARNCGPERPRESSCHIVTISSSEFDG
Method: HEK 293FT cells (Invitrogen, Carlsbad, Calif.) were grown in a shake flask in 293Freestyle medium (Invitrogen) supplemented with 50 microg/mL neomycin and 10 mM HEPES (37C, 8% carbon dioxide, shaking). The cells were centrifuged gently (approximately 500×g, 10 minutes) and the pellet resuspended in a mixture of Dulbecco's PBS (minus Mg++/Ca++) supplemented with 18% fetal bovine serum (Sigma Aldrich) and P1 virus such that the multiplicity of infection (MOI) was 10 and the final cell density was 1.3×10^6/mL (total volume 2.5 liters). The cells were transferred to a 5 liter Wave Bioreactor Wavebag (Wave Technologies, Mass.) and incubated for 4 hours at 27 degrees Celsius (17 rocks/min, 7 degrees platform angle); at the end of the incubation period, an equal volume (2.5 liters) of 293Freestyle medium supplemented with 30 mM sodium butyrate (Sigma Aldrich) was added (final concentration=15 mM), and the cells were grown for 20 hours (37 degrees Celsius, 8% CO2 [0.2 liters/min}, 25 rocks/minute, 7 degrees platform angle). Cells were harvested via centrifugation (3,000×g, 10 minutes), washed once on DPBS (minus Ca++/Mg++), resuspended in 0.25M sucrose, 25 mM HEPES, 0.5 mM EDTA, pH 7.4 and frozen at −80 degrees Celsius.
The frozen cells were thawed on ice and centrifuged at 700×g (1400 rpm) for 10 minutes at 4 degrees Celsius. The cell pellet was resuspended in 20 mL phosphate-buffered saline, and centrifuged at 1400 rpm for 10 minutes. The cell pellet was then resuspended in homogenization buffer (10 mM HEPES (Gibco #15630), pH 7.5, 1 mM EDTA (BioSolutions, #BIO260-15), 1 mM EGTA (Sigma, #E-4378), 0.01 mg/mL benzamidine (Sigma #B 6506), 0.01 mg/mL bacitracin (Sigma #B 0125), 0.005 mg/mL leupeptin (Sigma #L 8511), 0.005 mg/mL aprotinin (Sigma #A 1153)) and incubated on ice for 10 minutes. Cells were then lysed with 15 gentle strokes of a tight-fitting glass Dounce homogenizer. The homogenate was centrifuged at 1000×g (2200 rpm) for 10 minutes at 4 degrees Celsius. The supernatant was transferred into fresh centrifuge tubes on ice. The cell pellet was resuspended in homogenization buffer, and centrifuged again at 1000×g (2200 rpm) for 10 minutes at 4 degrees Celsius after which the supernatant was removed and the pellet resuspended in homogenization buffer. This process was repeated a third time, after which the supernatants were combined, Benzonase (Novagen # 71206) and MgC12 (Fluka #63020) were added to final concentrations of 1 U/mL and 6 mM, respectively, and incubated on ice for one hour. The solution was then centrifuged at 25,000×g (15000 rpm) for 20 minutes at 4 degrees Celsius, the supernatant was discarded, and the pellet was resuspended in fresh homogenization buffer (minus Benzonase and MgCl2). After repeating the 25,000×g centrifugation step, the final membrane pellet was resuspended in homogenization buffer and frozen at −80 degrees Celsius. The protein concentration was determined using the Pierce BCA protein assay kit (Pierce reagents A #23223 and B #23224).
Test compounds were serially diluted in 100% DMSO (J. T. Baker #922401). 2 microL of each dilution was added to appropriate wells of a 96-well plate (each concentration in triplicate). Unlabeled Compound A (or Compound B), at a final concentration of 10 microM, was used to determine non-specific binding. [^3H]-Compound A (or [^3H]-Compound B) was diluted in binding buffer (50 mM Tris-HCl, pH 7.5, (Sigma #T7443), 10 mM MgCl2 (Fluka 63020), 1 mM EDTA (BioSolutions #BIO260-15), 0.15% bovine serum albumin (Sigma #A7511), 0.01 mg/mL benzamidine (Sigma #B 6506), 0.01 mg/mL bacitracin (Sigma #B 0125), 0.005 mg/mL leupeptin (Sigma #L 8511), 0.005 mg/mL aprotinin (Sigma #A 1153)) to a concentration of 60 nM, and 100 microL added to all wells of 96-well plate (Nalge Nunc # 267245). Membranes expressing GPR119 were thawed and diluted to a final concentration of 20 μg/100 microL per well in Binding Buffer, and 100 microL of diluted membranes were added to each well of 96-well plate. […]

Row | Ki | Compound
1 | 74 nM and 83 nM and 85 nM and 97 nM and 71 nM and 34 nM and 50 nM | Cc1c(O[C@H]2CCN(C(=O)OC3(C)CC3)C[C@H]2F)ncnc1N1CCn2nccc21 (racemic) [Example 3, 1-Methylcyclopropyl (3R,4S)-4-{[6-(2,3-dihydro-1H-imidazo[1,2-b]pyrazol-1-yl)-5-methylpyrimidin-4-yl]oxy}-3-fluoropiperidine-1-carboxylate (racemic)]
2 | 140 nM | Cc1c(O[C@H]2CCN(C(=O)OC(C)C)C[C@H]2F)ncnc1N1CCn2nccc21 (racemic) [Example 4, Isopropyl (3R,4S)-4-{[6-(2,3-dihydro-1H-imidazo[1,2-b]pyrazol-1-yl)-5-methylpyrimidin-4-yl]oxy}-3-fluoropiperidine-1-carboxylate (racemic)]
3 | 57 nM and 38 nM and 50 nM and 64 nM and 44 nM and 13 nM and 42 nM and 104 nM and 46 nM | Cc1c(O[C@@H]2CCN(C(=O)OC3(C)CC3)C[C@@H]2F)ncnc1N1CCn2nccc21 (single isomer, unassigned) [Example 5]
4 | 69 nM and 295 nM and 186 nM and 133 nM and 101 nM and 67 nM and 80 nM | Cc1c(O[C@H]2CCN(C(=O)OC3(C)CC3)C[C@H]2F)ncnc1N1CCn2nccc21 (single isomer, unassigned) [Example 6]
5 | 514 nM and 442 nM and 446 nM and 524 nM | Cc1c(OC2CCN(C(=O)OC(C)C)CC2)ncnc1N1CCn2nccc21 [Example 1, Isopropyl 4-{[6-(2,3-dihydro-1H-imidazo[1,2-b]pyrazol-1-yl)-5-methylpyrimidin-4-yl]oxy}piperidine-1-carboxylate]
6 | 305 nM | Cc1c(OC2CCN(C(=O)OC3(C)CC3)CC2)ncnc1N1CCn2nccc21 [Example 2, 1-Methylcyclopropyl 4-{[6-(2,3-dihydro-1H-imidazo[1,2-b]pyrazol-1-yl)-5-methylpyrimidin-4-yl]oxy}piperidine-1-carboxylate]
